Experimental data from patent publication US5676937A, “Deodorant compositions comprising inhibitors of odor-producing axillary bacterial exoenzymes” (Colgate-Palmolive Company, priority 1995, dated 1997).
Where two headings read alike, the source gives them in different places.

Columns and labels:
[1] = biological target: T1, beta-glucuronidase (Escherichia coli, UniProt P05804); experiment: Semiquantitative assay of beta-glucuronidase (4-MUG to fluorescent 4-MU); type: biochemical, E. coli; parameters: key: + indicates enzyme inhibition; - indicates no enzyme inhibition; details: test inhibitor at 0.1 mM to 100 mM, 37° C., Tris pH 7, fluorescence by UV lamp
T1 construct: purchased Sigma Chemical Co
T1 sequence (P05804 whole entry): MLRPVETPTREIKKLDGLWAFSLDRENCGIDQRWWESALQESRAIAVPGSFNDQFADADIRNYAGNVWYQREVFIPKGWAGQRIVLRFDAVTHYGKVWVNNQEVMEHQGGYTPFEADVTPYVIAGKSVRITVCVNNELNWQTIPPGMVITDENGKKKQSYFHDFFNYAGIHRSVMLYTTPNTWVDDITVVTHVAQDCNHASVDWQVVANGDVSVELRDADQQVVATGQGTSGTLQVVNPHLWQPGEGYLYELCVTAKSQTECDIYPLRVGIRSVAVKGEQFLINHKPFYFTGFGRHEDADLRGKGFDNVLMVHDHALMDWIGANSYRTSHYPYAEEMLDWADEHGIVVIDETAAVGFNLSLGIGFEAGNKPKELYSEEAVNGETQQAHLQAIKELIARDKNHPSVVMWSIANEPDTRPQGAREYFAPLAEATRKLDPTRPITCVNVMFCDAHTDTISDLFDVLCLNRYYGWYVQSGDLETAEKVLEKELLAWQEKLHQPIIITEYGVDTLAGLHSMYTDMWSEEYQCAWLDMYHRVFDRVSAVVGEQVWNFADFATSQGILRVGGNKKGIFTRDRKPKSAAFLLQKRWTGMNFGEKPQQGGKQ
Description: (§1) B-glucuronidase from E. coli and aryl sulfatase from Aerobacter aerogenes, 4-methyl umbelliferyl glucuronide, 4-methylumbelliferyl sulfate, 4-methylumbelliferone, and D-saccharic acid-.tangle-solidup.-lactone were purchased from Sigma Chemical Co. Sodium hexametaphosphate (SPORIX) was obtained from International Sourcing.
(§2) Semiquantitative assays of the exoenzymes beta-G and AS were prepared. The enzyme assays measure conversion at 37° C. of the non-fluorescent substrates 4-MUG (for beta-G) and 4-MUS (for AS) to fluorescent product, 4-MU. The assay mixtures contained:
(§3) For the semiquantitative studies, fluorescence was detected by long-wave UV lamp (Black-Light Eastern Corporation Model XX 15).
(§4) The effects of inhibitors on the enzymatic reactions were assessed by substituting aqueous Solutions of test inhibitor, at 0.1 mM to 100 mM, for the water. To rule out quenching of the fluorescence reaction by the inhibitors separate tests were performed comparing the fluorescence from 4-MU at the maximum concentration expected in the enzyme reaction mixtures with either inhibitor solution or water.
(§5) Various inhibiting compounds of mammalian beta-G's and AS's, as well as related materials, were tested in the assay. The classic inhibitor of beta-G is saccharic acid-.tangle-solidup.-lactone (glucarolactone). This material was tested as well as the simple sugars, mannose, fucose and galactosamine and the polysaccharide pullulan. One of the reported inhibitors of beta-G, EDTA, is a strong chelating agent. Also tested against the enzyme were o-phenanthroline, citrate, gluconate, nitrilotriacetate and hexametaphosophate.

[2] = biological target: T2, aryl sulfatase (Klebsiella aerogenes, UniProt P20713); type: biochemical; parameters: key: + indicates enzyme inhibition; - indicates no enzyme inhibition
T2 construct: purchased Sigma Chemical Co
T2 sequence (P20713 21-464): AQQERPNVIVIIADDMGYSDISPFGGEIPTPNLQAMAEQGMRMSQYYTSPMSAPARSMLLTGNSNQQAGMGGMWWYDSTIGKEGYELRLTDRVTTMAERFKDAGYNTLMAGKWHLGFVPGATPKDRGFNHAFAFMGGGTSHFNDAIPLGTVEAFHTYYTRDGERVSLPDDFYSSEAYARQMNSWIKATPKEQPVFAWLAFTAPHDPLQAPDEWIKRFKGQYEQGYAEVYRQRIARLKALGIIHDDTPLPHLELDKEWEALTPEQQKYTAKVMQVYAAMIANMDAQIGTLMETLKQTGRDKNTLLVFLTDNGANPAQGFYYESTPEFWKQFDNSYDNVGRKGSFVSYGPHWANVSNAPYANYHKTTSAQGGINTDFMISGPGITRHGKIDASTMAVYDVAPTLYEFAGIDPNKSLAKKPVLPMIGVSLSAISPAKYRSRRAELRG
Description: as §1, §2, §3, §4
as §5, with “One of the reported inhibitors of beta-G, EDTA, is a strong chelating agent.” left out

[3] = biological target: T1, beta-glucuronidase; experiment: Quantitative fluorimetric assay of beta-G; type: biochemical, E. coli; details: FIG. 3; for effective inhibitor concentration range for beta-G: relative initial rate vs log inhibitor concentration, 37° C.; for level at which inhibition of beta-G is provided: in words
Description: In addition to the semiquantitative assays several inhibitors of each, beta-G and AS, were assayed by quantitative fluorimetry. […] Prior to the performance of quantitative assays it was necessary to determine absorption and emission maxima of the fluorescent product 4-MU, as well as a concentration range for which the fluorescence intensity of this species varies linearly with concentration. A solution of 4-MU, 2 μg.ml, was prepared in 0.1M Tris buffer, pH 7.0. The absorption spectrum was scanned, giving a maximum at 334 nm. The emission maximum, 444 nm, was obtained by scanning the emission spectrum while irradiating at 334 nm. All quantitative fluorescence studies employed these parameters.
The levels of 4-MU generated in beta-G and AS assays fell into range 1. The conversion factor was 1 fluorescence unit=0.09 μM 4-MU.
Samples were prepared as described above. All components, except the enzyme, were warmed to 37° C. before addition of the enzyme. During the assays, reaction mixtures were maintained at 37° C. Fluorescence intensities were measured as a function of time.
As in the semi-quantitative tests, the progress of the reactions was indicated by the development of fluorescent product 4-MU from the non-fluorescent substrates, 4-MUG and 4-MUS. The data was recorded as fluorescence emission intensity as a function of time. […] Similar plots were constructed for each inhibitor. At each concentration, the beginning slope indicates the initial reaction rate. These rates were then expressed as a fraction of the uninhibited reaction rate and plotted against the log of the inhibitor concentration.

[4] = biological target: T2, aryl sulfatase; experiment: Quantitative fluorimetric assay of AS; type: biochemical; details: FIG. 4; relative initial rate vs log inhibitor concentration; 37° C.
Description: As in the semi-quantitative tests, the progress of the reactions was indicated by the development of fluorescent product 4-MU from the non-fluorescent substrates, 4-MUG and 4-MUS. The data was recorded as fluorescence emission intensity as a function of time. […] At each concentration, the beginning slope indicates the initial reaction rate. These rates were then expressed as a fraction of the uninhibited reaction rate and plotted against the log of the inhibitor concentration.

[5] = system: mixture of AS and betaG; experiment: Inhibition of odor from apocrine secretion treated with enzymes (panel odor evaluation); type: biochemical, E. coli; Aerobacter aerogenes; details: enzymes (AS + betaG) + apocrine sweat + inhibitor 40 mM; 37° C.; evaluated at 24 hr and 48 hr; panel of five
Description: (§6) Apocrine secretion fluid was collected from eleven subjects. The axillary area was shaved, washed with a 0.1% solution of Triton X-100, rinsed with water, blotted dry, then rinsed with hexane. An intradermal injection of 0.1 ml of 1:2000 adrenaline was performed to stimulate the apocrine glands. Micropipettes (10 μl) were placed directly against the skin to collect the droplets of apocrine secretion. Samples were frozen until ready for use. The samples were eluted from the capillary tubes with 0.1M Tris buffer, pH 7.0, when ready for use in the odor-generation studies. Lipophilic diphtheroid cultures isolated from human axillae were obtained.
(§7) Inhibiting compounds were then tested to determine their effect on odor production in apocrine secretion. Sterile, odorless apocrine secretion was eluted from capillaries into 1.5 ml of 0.1M Tris buffer, pH 7.0. In the first study, apocrine sweat was treated with beta-glucuronidase, (E. coli) and aryl sulfatase (Aerobacter aerogenes) at 0.01 mg/ml in Tris buffer, 0.1M, pH 7.0. The apocrine secretion was also treated with the lipophilic diphtheroid and with a mixed culture of axillary bacteria, each in sterile saline suspension.
(§8) In a second study, inhibitors of the two enzymes were included in the reaction mixtures--Zn++ as Zn-Glycinate, saccharic acid lactone and hexametaphosphate. The concentration of each inhibitor used in this study was 40 mM. […]

[6] = system: lipophilic diphtheroid; experiment: Inhibition of odor from apocrine secretion treated with lipophilic diphtheroids (panel odor evaluation); type: cell-based; details: lipophilic diphtheroids + apocrine sweat + inhibitor 40 mM; 37° C.; evaluated at 24 hr and 48 hr; panel of five
Description: as §6, §7, §8

[7] = system: lipophilic diphtheroid; experiment: Minimum inhibitory concentration, lipophilic diphtheroid; type: cell-based; details: ">" = growth at the highest concentration
Description: (§9) Minimum Inhibitory Concentration (MIC) values of several zinc complexes were measured for three organisms that occur naturally in the axilla: S. epidermidis, S. aureus and a lipophilic diphtheroid.
(§10) Simple salts of zinc are known to be bacteriostatic. An outcome of the experiments was producing a method to reduce axillary odor without destroying the natural flora of the axilla. Therefore MIC values of several zinc complexes and the antiseptic Irgasan DP 300 (positive control) were measured against several organisms that occur naturally in the underarm, including S epidermidis, S. aureus, and a lipophilic diphtheroid. The ">" signs indicate that bacterial growth occurred at the highest concentration of zinc compound. None of the zinc compounds were conspicuously inhibitory, having effective levels ranging from 0.1 to 1%.

[8] = system: S. epidermidis; experiment: Minimum inhibitory concentration, S. epidermidis; type: cell-based; details: ">" = growth at the highest concentration
Description: as §9, §10

[9] = system: S. aureus; experiment: Minimum inhibitory concentration, S. aureus; type: cell-based; details: ">" = growth at the highest concentration
Description: as §9, §10

[10] = system: axillary odor; experiment: Human clinical study of axillary deodorancy; type: in vivo; details: for Mean Odor Score: four-judge average, ten-point scoring, Zn-GLY […], ACH 5.0%
Description: The negative control was water. Odor assessments were performed by four experienced professional evaluators from Hill Top Research, using a ten-point scoring system. Ninety subjects were recruited, and baseline scores were established after a twenty-four hour conditioning period. Sixty subjects with highest scores (all greater than 4) were retained for the study.
During the test the subjects were entered into a regimen of timed, supervised washes with conditioning soap bars, followed by supervised treatments with the test solutions and post-treatment odor evaluation. The evaluations were conducted at 5-hr and 24-hr intervals following treatments 2, 3 and 4 and all aspects were randomized to eliminate any biases.
Scores of the four judges were averaged for each person, for each evaluation. The axilla-to-axilla difference for each person was taken as the index of the deodorancy of the test material versus the water control.
The positive control was 5.0% aluminum chlorhydrate. […] The negative control was distilled deionized water.
The mean odor scores represent the four-judge average odor scores, post-treatment. The control values are the average baseline odor scores for the various cells.

[11] = test inhibitor at 0.1 mM to 100 mM, 4-MUS, 37° C., Tris pH 7, fluorescence by UV lamp

Compound: O=C(O)CC(O)(CC(=O)O)C(=O)O [Citrate]
- inhibition of BETA-G [1]: -

Compound: [Cu+2] [Cu++]
- inhibition of BETA-G [1]: +
- inhibition of AS [2, 11]: +
- effective inhibitor concentration range for beta-G [3]: 10 to 100 µM
- effective inhibitor concentration range for AS [4]: 0.1 to 10 µM

Compound: O=C(O)[C@@H](O)[C@H]1OC(=O)[C@H](O)[C@H]1O [D-glucaro-.tangle-solidup.-lactone, D-saccharic acid-.tangle-solidup.-lactone, reference compound]
- inhibition of BETA-G [1]: +
- effective inhibitor concentration range for beta-G [3]: 1-10 μm
- odor [5]: No odor to faint musky-sweaty
- odor [6]: Moderate sweaty

Compound: O=C(O)CN(CCN(CC(=O)O)CC(=O)O)CC(=O)O [EDTA, reference compound]
- inhibition of BETA-G [1]: +
- inhibition of AS [2, 11]: -
- level at which inhibition of beta-G is provided [3]: millimolar levels

Compound: N[C@H]1C(O)O[C@H](CO)[C@H](O)[C@@H]1O (stereo partly shown) [Galactosamine, galactosamine]
- inhibition of BETA-G [1]: -

Compound: Oc1cc(Cl)ccc1Oc1ccc(Cl)cc1Cl [Irgasan, reference compound]
- MIC, LIPOPHILIC DIPHTHEROID [7]: 16 ppm
- MIC, STAPHYLOCOCCUS EPIDERMIS [8]: < 0.5 ppm
- MIC, STAPHYLOCOCCUS AUREUS [9]: < 0.5 ppm

Compound: c1cnc2c(c1)ccc1cccnc12 [O-phenanthroline, o-phenanthroline]
- inhibition of BETA-G [1]: +
- level at which inhibition of beta-G is provided [3]: millimolar levels

Compound: O=P(O)(O)O [Orthophosphate]
- inhibition of AS ([2]; pH 7): +

Compound: O=S(=O)([O-])[O-].[Na+].[Na+] [Sodium sulfate]
- inhibition of BETA-G [1]: +

Compound: [Zn+2] [Zn++]
- inhibition of BETA-G [1]: +
- inhibition of AS [2, 11]: +
- effective inhibitor concentration range for beta-G [3]: 10 to 100 µM
- effective inhibitor concentration range for AS [4]: 10-100 82 M

Compound: [Cl-].[Cl-].[Zn+2] [ZnCl2]
- MIC, LIPOPHILIC DIPHTHEROID [7]: > 1000 ppm
- MIC, STAPHYLOCOCCUS EPIDERMIS [8]: > 1000 ppm
- MIC, STAPHYLOCOCCUS AUREUS [9]: > 1000 ppm

Compound: O=P1([O-])OP(=O)([O-])OP(=O)([O-])OP(=O)([O-])OP(=O)([O-])OP(=O)([O-])O1.[Na+].[Na+].[Na+].[Na+].[Na+].[Na+] [hexametaphosphate, Sodium hexametaphosphate]
- inhibition of BETA-G [1]: +
- inhibition of AS [2, 11]: +
- effective inhibitor concentration range for AS [4]: 10-100 82 M
- odor [5]: Faint/moderate musky-sweaty

Compound: aluminum chlorhydrate [ACH]
- % Difference (decrease in odor vs H2O axilla) ([10]; application #2, 5 hr): 34.0%
- Mean Odor Score ([10]; application #2, 5 hr): 3.13
- % Difference (decrease in odor vs H2O axilla) ([10]; application #2, 24 hr): 27.8%
- Mean Odor Score ([10]; application #2, 24 hr): 3.91
- % Difference (decrease in odor vs H2O axilla) ([10]; application #3, 5 hr): 28.8%
- Mean Odor Score ([10]; application #3, 5 hr): 2.95
- % Difference (decrease in odor vs H2O axilla) ([10]; application #3, 24 hr): 26.1%
- Mean Odor Score ([10]; application #3, 24 hr): 3.88
- % Difference (decrease in odor vs H2O axilla) ([10]; application #4, 5 hr): 34.9%
- Mean Odor Score ([10]; application #4, 5 hr): 2.90
- % Difference (decrease in odor vs H2O axilla) ([10]; application #4, 24 hr): 29.5%
- Mean Odor Score ([10]; application #4, 24 hr): 3.64

Compound: fucose
- inhibition of BETA-G [1]: -

Compound: mannose
- inhibition of BETA-G [1]: -

Compound: pullulan
- inhibition of BETA-G [1]: -
